# Test results as given in ChEMBL document CHEMBL3272193, “New synthetic calcium selective ionophores. Design, synthesis, and transport properties” (J Med Chem, 1978).
# Tests used:
# Assay type in all cases: physicochemical; call rule not given here
# [1] = Induction of sodium transport in chloroform layer up to 7 to 11 hrs
# [2] = Induction of calcium transport in chloroform layer up to 7 to 11 hrs in presence of picrate
# [3] = Induction of calcium transport in chloroform layer up to 7 to 11 hrs in absence of picrate
# [4] = Induction of magnesium transport in chloroform layer up to 3 hrs
Structure (SMILES),Activity [1],Activity [2],Activity [3],Activity [4]
O=C(O)COCC(=O)NCCc1ccccc1,Not Active,–,–,–
O=C(COCCOCC(=O)NCCc1ccccc1)NCCc1ccccc1,Not Active,–,–,–
O=C(COCCOCC(=O)N1c2ccccc2C=Cc2ccccc21)N1c2ccccc2C=Cc2ccccc21,Not Active,Active,Active,–
O=C(O)COCC(=O)N1CCC(C(c2ccccc2)c2ccccc2)CC1,Not Active,Active,Active,Active
COc1ccccc1CC(C)N(C)C(=O)COCCOCC(=O)N(C)C(C)Cc1ccccc1OC (mixture of isomers),Not Active,Active,Active,Active
O=C(COCCOCC(=O)NC12CC3CC(CC(C3)C1)C2)NC12CC3CC(CC(C3)C1)C2,Not Active,–,–,–
O=C(O)COCC(=O)NC12CC3CC(CC(C3)C1)C2,Not Active,–,–,–
CC(CC1CCCCC1)N(C)C(=O)COCCOCC(=O)N(C)C(C)CC1CCCCC1 (mixture of isomers),Not Active,Active,Active,–
CN(CCc1ccccc1)C(=O)COCC(=O)O,Not Active,–,–,–
CC(CC1CCCCC1)N(C)C(=O)COCC(=O)O (centres undefined),Not Active,Active,Active,Active
O=C(COCCOCC(=O)NCCc1c[nH]c2ccccc12)NCCc1c[nH]c2ccccc12,Not Active,–,–,–
